How the values were obtained:
[1] = system: NIH-H460 cells of lung carcinoma; test: Inhibition of cell proliferation, NIH-H460 cells counted by Cell Counter; assay type: cell-based
Experimental: The experimentation has been carried out on NIH-H460 cells of lung carcinoma (D. N. Carney et al., Cancer Res., 45, 2913-2923, 1985) grown in monolayer in the RPMI 1640 nutrient medium (Bio Whittaker, Verviers, Belgium) added with 10% by volume with respect to the total volume of FCS (Fetal Calf Serum), at the temperature of 37° C., in a CO2 atmosphere humidified at 5%.
The cells have been put in 24 wells plates, using as nutrient medium RPMI 1640 added with 10% of FCS, and left to adhere for 24 hours. The insemination medium has been then removed and substituted with the experimental medium consisting of RPMI 1640 with 10% of FCS and increasing concentrations of sodium butyrate, or of cholesteryl butyrate in form of nanospheres prepared as in the above reported example 1. The cells have been kept for 6 days in contact with such experimental medium.
The effect of the sodium butyrate and of cholesteryl butyrate on the cell growth has been estimated counting the cells by a Cell Counter.

[2] = system: cells of the mastocarcinoma, MCF7; test: Inhibition of cell proliferation, MCF7 cells counted by Cell Counter; assay type: cell-based; settings: Homo sapiens, MCF7, 144 h, read-out: inhibition of the cell growth
Experimental: The above described experiment has been repeated on cells of the mastocarcinoma, identified with the MCF7 abbreviation, using as insemination medium DMEM/F12 (Dulbecco's modified Eagle's medium, Sigma Chemical Co., St. Louis, Mo.) with 2% FCS.
Said cells have been placed in 12 well plates, where they have been left to adhere for 24 hours in the above described nutrition medium.
The nutrient medium has been then removed and substituted with the experimental medium consisting of DMEM/F12 with 10% FCS added with increasing concentrations of sodium butyrate, or of cholesteryl butyrate in form of nanospheres prepared according to the above reported example 2. The cells have been kept for 6 days in contact with such experimental medium.
The antiproliferative effect of the cholesteryl butyrate nanospheres on the cell growth has been estimated counting the cells with a Cell Counter.

Structure (SMILES) | effect on the cell proliferation ([1]; comparison test, additive of the experimental medium RPMI 1640 with 10% FCS) | inhibition at 210 µM ([1]; NIH-H460, 144 h, read-out: inhibition of the cell growth) [%] | inhibition at 200 µM [2] [%]
CC(C)CCC[C@@H](C)[C@H]1CC[C@H]2[C@@H]3CC=C4C[C@@H](O)CC[C@]4(C)[C@H]3CC[C@]12C [cholesterol] | does not affect the cell proliferation in any way |  | 
CCCC(=O)[O-].[Na+] [sodium butyrate] |  | 50 | 40

Source: patent publication US6685960B1, “Solid lipidic nanospheres suitable to a fast internalization into cells” (priority 1998, dated 2004)
